Legend:
[1] = Permeability across apical side to basolateral side in human Caco2 cells expressing p-gp at 3 uM incubated for 2 hrs by LC-MS/MS analysis; format: ADME, cell-based; conditions: Caco-2, read-out: permeability
[2] = Permeability across basolateral side to apical side in human Caco2 cells expressing p-gp at 3 uM incubated for 2 hrs by LC-MS/MS analysis; format: ADME, cell-based; conditions: Caco-2, read-out: permeability
[3] = Efflux ratio of permeability from basolateral side to apical side over apical side to basolateral side in human Caco2 cells expressing p-gp at 3 uM incubated for 2 hrs by LC-MS/MS analysis; format: ADME, cell-based; conditions: Caco-2
[4] = Permeability of the compound at pH 7.4 by PAMPA; format: ADME; conditions: read-out: permeability
[5] = Clearance in cannulated Sprague-Dawley rat at 2 mg/kg, iv administered as 10 mins infusion by LC-MS/MS analysis; format: ADME, organism-based; conditions: in vivo
[6] = Drug level in cannulated Sprague-Dawley rat liver at 6 mg/kg, po administered via gastric gavage measured after 5 hrs by LC-MS/MS analysis; format: ADME, organism-based; conditions: read-out: Drug uptake
[7] = Drug level in cannulated Sprague-Dawley rat liver at 6 mg/kg, po administered via gastric gavage measured after 24 hrs by LC-MS/MS analysis; format: ADME, organism-based; conditions: read-out: Drug uptake
[8] = Tmax in cannulated Sprague-Dawley rat at 6 mg/kg, po administered via gastric gavage by LC-MS/MS analysis; format: ADME, organism-based; conditions: in vivo
[9] = Half life in cannulated Sprague-Dawley rat at 2 mg/kg, iv administered as 10 mins infusion by LC-MS/MS analysis; format: ADME, organism-based; conditions: in vivo
[10] = Half life in rat liver microsomes; format: ADME, Microsome
[11] = Half life in human liver microsomes; format: ADME, Microsome
[12] = Oral bioavailability in cannulated Sprague-Dawley rat at 6 mg/kg administered via gastric gavage by LC-MS/MS analysis; format: ADME, organism-based; conditions: in vivo
[13] = Volume of distribution at steady state in cannulated Sprague-Dawley rat at 2 mg/kg, iv administered as 10 mins infusion by LC-MS/MS analysis; format: ADME, organism-based; conditions: in vivo, read-out: Vdss
[14] = Cmax in cannulated Sprague-Dawley rat at 6 mg/kg, po administered via gastric gavage by LC-MS/MS analysis; format: ADME, organism-based; parameters: dose 6 mg/kg, route oral; conditions: in vivo
[15] = AUC in cannulated Sprague-Dawley rat at 6 mg/kg, po administered via gastric gavage by LC-MS/MS analysis; format: ADME, organism-based; conditions: in vivo
[16] = Stability in rat liver microsomes assessed as parent compound remaining; format: ADME, Microsome
[17] = Stability in human liver microsomes assessed as parent compound remaining; format: ADME, Microsome
[18] = Drug level in cannulated Sprague-Dawley rat plasma at 6 mg/kg, po administered via gastric gavage measured after 5 hrs by LC-MS/MS analysis; format: ADME, organism-based

Row | Structure (SMILES) | Papp A→B at 2 h, 3 µM [1] | Papp B→A at 2 h, 3 µM [2] | efflux ratio at 2 h, 3 µM [3] | Papp [4] | also measured
1 | CCN(C(=O)C(F)(F)F)c1cc2oc(-c3ccc(F)cc3)c(C(=O)NC)c2cc1-c1ccc(OC)c(C(=O)NC2(c3ncccn3)CC2)c1 | 4.2 ×10⁻⁶ cm/s | 11.5 ×10⁻⁶ cm/s | 2.7 | 83.5 ×10⁻⁶ cm/s | –
2 | CCN(c1cc2oc(-c3ccc(F)cc3)c(C(=O)NC)c2cc1-c1cc(F)c(OC)c(C(=O)NC2(c3ncccn3)CC2)c1)S(C)(=O)=O | 2.9 ×10⁻⁶ cm/s | 40.6 ×10⁻⁶ cm/s | 13.8 | 65.9 ×10⁻⁶ cm/s | –
3 | CCNc1cc2oc(-c3ccc(F)cc3)c(C(=O)NC)c2cc1-c1ccc(OC)c(C(=O)NC2(c3ncccn3)CC2)c1 | 23.2 ×10⁻⁶ cm/s | 17.6 ×10⁻⁶ cm/s | 0.8 | 72 ×10⁻⁶ cm/s | clearance [5]: 11 mL/min/kg; concentration at 5 h [6]: 5260 nM; concentration at 24 h [7]: 391 nM; Tmax [8]: 5.3 h; half-life [9]: 4.7 h; half-life [10]: 0.65 h; half-life [11]: 0.6 h; bioavailability [12]: 57%; Vd [13]: 4 L/kg; Cmax [14]: 776 nM; AUC [15]: 7.8 µM·h
4 | CCN(C(=O)N(C)C)c1cc2oc(-c3ccc(F)cc3)c(C(=O)NC)c2cc1-c1ccc(OC)c(C(=O)NC2(c3ncccn3)CC2)c1 | 2 ×10⁻⁶ cm/s | 47.9 ×10⁻⁶ cm/s | 24.1 | 57.5 ×10⁻⁶ cm/s | –
5 | CCN(c1cc2oc(-c3ccc(F)cc3)c(C(=O)NC)c2cc1-c1cc(C)c(OC)c(C(=O)NC2(c3ncccn3)CC2)c1)S(C)(=O)=O | 3.3 ×10⁻⁶ cm/s | 32.2 ×10⁻⁶ cm/s | 9.8 | 40.9 ×10⁻⁶ cm/s | –
6 | CNC(=O)c1c(-c2ccc(F)cc2)oc2ccc(-c3cccc(C(=O)NC4(c5ccccn5)CC4)c3)cc12 | – | – | – | – | Stability [16]: 54%; Stability [17]: 91%
7 | CNC(=O)c1c(-c2ccc(F)cc2)oc2cc(N(CCO)S(C)(=O)=O)c(-c3cccc(C(=O)NC4(c5ccccn5)CC4)c3)cc12 | – | – | – | – | Stability [16]: 8.7%; Stability [17]: 99%
8 | CCN(C(C)=O)c1cc2oc(-c3ccc(F)cc3)c(C(=O)NC)c2cc1-c1ccc(OC)c(C(=O)NC2(c3ncccn3)CC2)c1 | < 1.5 ×10⁻⁶ cm/s | 30.8 ×10⁻⁶ cm/s | > 20.5 | 46.6 ×10⁻⁶ cm/s | –
9 | CNC(=O)c1c(-c2ccc(F)cc2)oc2cc(N(CCO)S(C)(=O)=O)c(-c3cccc(C(=O)NC4(c5ccccc5)CC4)c3)cc12 | – | – | – | – | Stability [16]: 0.6%; Stability [17]: 63%
10 | CCN(c1cc2oc(-c3ccc(F)cc3)c(C(=O)NC)c2cc1-c1ccc(OC)c(C(=O)NC2(c3ncccn3)CC2)c1)S(C)(=O)=O | < 1.5 ×10⁻⁶ cm/s | 18.5 ×10⁻⁶ cm/s | > 12.4 | 48.7 ×10⁻⁶ cm/s | clearance [5]: 60 mL/min/kg; concentration at 5 h [6]: 1180 nM; Tmax [8]: 1.9 h; half-life [9]: 1.6 h; half-life [10]: > 2 h; half-life [11]: 1.52 h; bioavailability [12]: 20%; Vd [13]: 14 L/kg; Cmax [14]: 223 nM; AUC [15]: 0.74 µM·h
11 | CCN(C(=O)OC)c1cc2oc(-c3ccc(F)cc3)c(C(=O)NC)c2cc1-c1ccc(OC)c(C(=O)NC2(c3ncccn3)CC2)c1 | 2.4 ×10⁻⁶ cm/s | 23.2 ×10⁻⁶ cm/s | 9.6 | 66 ×10⁻⁶ cm/s | –
12 | CCN(c1cc2oc(-c3ccc(F)cc3)c(C(=O)NC)c2cc1-c1cccc(C(=O)NC2(c3ncccn3)CC2)c1)S(C)(=O)=O | < 1.5 ×10⁻⁶ cm/s | 13 ×10⁻⁶ cm/s | > 8.6 | – | Stability [16]: 91%; half-life [10]: 0.817 h; half-life [11]: > 2 h; Stability [17]: 100%
13 | CCN(c1cc2oc(-c3ccc(F)cc3)c(C(=O)NC)c2cc1-c1cc(Cl)c(OC)c(C(=O)NC2(c3ncccn3)CC2)c1)S(C)(=O)=O | 5.2 ×10⁻⁶ cm/s | 11.4 ×10⁻⁶ cm/s | 2.2 | 82.1 ×10⁻⁶ cm/s | concentration at 5 h [6]: 7180 nM; half-life [10]: 0.433 h; concentration at 5 h [18]: 277 nM; half-life [11]: 0.232 h
14 | CCN(c1cc2oc(-c3ccc(F)cc3)c(C(=O)NC)c2cc1-c1cc(F)c(F)c(C(=O)NC2(c3ncccn3)CC2)c1)S(C)(=O)=O | 7.9 ×10⁻⁶ cm/s | 62.3 ×10⁻⁶ cm/s | 7.8 | 73.1 ×10⁻⁶ cm/s | –
